In paper PMC5840523, “Assessment of a pretomanid analogue library for African trypanosomiasis: Hit-to-lead studies on 6-substituted 2-nitro-6,7-dihydro-5H-imidazo[2,1-b][1,3]thiazine 8-oxides” (Bioorganic & Medicinal Chemistry Letters, 2018):
Values after ≈ are worked out from the molar mass of the structure shown. Where two headings read alike, the source gives them in different places. One block for each molecule: values may come before it.

Legend:
[1] = in vitro; details: dog, MDCK-MDR1, Permeability Papp
[2] = system: T. b. brucei 427; experiment: T. b. brucei 427 growth inhibition (Scynexis); format: cell-based, Trypanosoma brucei brucei; details: for Selectivity Index: L929 vs T. b. brucei; for IC50: Trypanosoma brucei, growth inhibition of T. b. brucei 427, mean ± SD
[3] = system: L929 mouse fibroblasts; experiment: Cytotoxicity toward L929 mouse fibroblasts (Scynexis); format: cell-based
[4] = Mouse liver S9 stability; format: in vitro ADME; details: CD-1, mouse, mouse liver S9 subcellular fraction, half-life in mouse liver S9 fraction; read-out: Mouse S9 t1/2
[5] = Kinetic aqueous solubility in pH 7.4 PBS; format: physicochemical
Excerpt: Table 1 Inhibitory potency, metabolic stability, aqueous solubility, and MDCK-MDR1 cell permeability for 15 screening hits against T. b. brucei. | column: Solubility ^c / (µg/mL)

[6] = system: T. b. brucei 427; experiment: T. b. brucei growth inhibition (University of Antwerp); format: cell-based, Trypanosoma brucei brucei; details: for IC50: T. b. brucei 427, mean of 2 to 5 determinations, read-out: IC50 T. b. bruc
[7] = system: T. b. rhodesiense; experiment: T. b. rhodesiense growth inhibition (University of Antwerp); format: cell-based, Trypanosoma brucei rhodesiense; details: mean of 2 to 5 determinations, read-out: IC50 T. b. rhod
[8] = system: Trypanosoma cruzi; experiment: T. cruzi growth inhibition (University of Antwerp); format: cell-based; details: mean of 2 to 5 determinations
[9] = system: Leishmania infantum; experiment: L. infantum growth inhibition (University of Antwerp); format: cell-based; details: mean of 2 to 5 determinations
[10] = system: human lung fibroblasts (MRC-5 cells); experiment: Cytotoxicity toward MRC-5 cells (University of Antwerp); format: cell-based
[11] = system: T. b. brucei (EATRO 110); experiment: Acute (stage 1) HAT infection mouse model; format: in vivo, T. b. brucei; female Swiss Webster mice; details: 2 mg/kg i.p. once daily for 4 days
Method: Therefore, 24 was examined in a stage 1 HAT mouse model.[14] Briefly, dosing was orally once daily for four days, starting 24 h postinfection, and parasitemia was assessed weekly via tail vein blood smears (see the Supporting Information). Excellent activity was observed (Table 4), with 24 providing complete cures (i.e. parasite free blood smears after >30 days) to all mice at doses as low as 5 mg/kg, similar to the control drug pentamidine (given i.p. at 2 mg/kg), whereas the vehicle only mice died on day 7. […] Here, oral dosing of 24 (at 12.5 to 50 mg/kg once daily for seven days from day 21 postinfection) led to significant increases in survival times in comparison to untreated controls (66–70 days vs 31 days; Table 5), although cure rates were inadequate (0–20%). […]
Mouse Model f or Acu te HAT Inf ection. Compound 24 was tested for in vivo effi cac y against acute HAT infection caused b y T. b. brucei (EATRO 110 strain) at the Haskins Laboratories, Pace Universit y. […] Infected animals or th ose showing si gns of infectionwer e euthanized.Untreated infected contr ol animals died after 5-7 days; mice remaining parasite free for more than 30 da ys beyond the end of the tr eatment period w er e con sidered cur ed. […]

[12] = system: T. b. brucei (TREU 667); experiment: CNS (stage 2, chronic) HAT infection mouse model; format: in vivo, T. b. brucei; female Swiss Webster mice
Method: Therefore, 24 was examined in a stage 1 HAT mouse model.[14] Briefly, dosing was orally once daily for four days, starting 24 h postinfection, and parasitemia was assessed weekly via tail vein blood smears (see the Supporting Information). Excellent activity was observed (Table 4), with 24 providing complete cures (i.e. parasite free blood smears after >30 days) to all mice at doses as low as 5 mg/kg, similar to the control drug pentamidine (given i.p. at 2 mg/kg), whereas the vehicle only mice died on day 7. […]
Mouse Model for Chronic HAT Inf ection. Compound 24 was tested for in vi vo efficac y against chronic HAT infection caused b y T. b. brucei (TREU 667 strain) at the Haskin s Laboratories, Pace Universit y. […]
suspension formulation (0.8% CMC, 0.1% SDS in water) to groups of 8 or 10infected f emal e Swiss Webster mice, starting 21 d postinfection, according to a report ed method. 5 Animals remaining parasite free for more than 180 da ys beyond the end of the treatment period were […]

[13] = Trypanosoma brucei, RHODESIENSE
[14] = Homo sapiens, MRC5, cytotoxicity toward human lung fibroblasts
[15] = cytotoxicity toward human lung fibroblasts
[16] = 10 mg/kg single i.p. dose on day 4
[17] = 10 mg/kg single i.p. dose on day 21

Molecule: O=[N+]([O-])c1cn2c(n1)OC[C@@H](Oc1cc(-c3ccc(C(F)(F)F)nc3)ccn1)C2 [Compound 22]
Selectivity Index [2]: >3.6
IC50 [2]: 2.8 ± 0.2 µg/mL (≈ 6.87 µM)
IC50 [3]: > 10 µg/mL
half-life [4]: 146 min
solubility [5]: 10 µg/mL (≈ 24.6 µM)
Papp at 1 h, 3 µM [1]: 79.3 ×10⁻⁶ cm/s

Molecule: O=[N+]([O-])c1cn2c(n1)SCC(Oc1ccc(C(F)(F)F)cn1)C2 (stereo not drawn) [Compound 29]
IC50 ([6]; Trypanosoma brucei): > 64 µM
IC50 [7, 13]: > 64 µM
IC50 ([8]; Trypanosoma cruzi): 5300 nM
IC50 ([9]; Leishmania infantum): 10 µM
IC50 [10, 14]: > 64 µM

Molecule: O=[N+]([O-])c1cn2c(n1)SCC(OCc1ccc(-c3ccc(OC(F)(F)F)cc3)cn1)C2 (stereo not drawn) [Compound 32]
IC50 ([6]; Trypanosoma brucei): 4.3 µM
IC50 [7, 13]: 2.1 µM
IC50 ([8]; Trypanosoma cruzi): 1400 nM
IC50 ([9]; Leishmania infantum): 7.5 µM
IC50 [10, 14]: 21 µM

Molecule: O=[N+]([O-])c1cn2c(n1)[S+]([O-])CC(Oc1ccc(OC(F)(F)F)cc1)C2 (stereo not drawn) [Compound 33]
potency relative to 12 against T. b. brucei (fold less potent) [6]: 4- to 6 fold
IC50 [6]: 1.6 µM
IC50 [7]: 0.98 µM
IC50 [8]: 2100 nM
IC50 [9]: 7 µM
IC50 [10, 15]: 23 µM

Molecule: O=[N+]([O-])c1cn2c(n1)[S+]([O-])CC(Oc1ccc(C(F)(F)F)cn1)C2 (stereo not drawn) [Compound 34]
potency relative to 12 against T. b. brucei (fold less potent) [6]: 4- to 6 fold
IC50 [6]: 1.2 µM
IC50 [7]: 0.51 µM
IC50 [8]: 4100 nM
IC50 [9]: 13 µM
IC50 [10, 15]: > 64 µM

Molecule: O=[N+]([O-])c1cn2c(n1)[S+]([O-])CC(Oc1ccc(OC(F)(F)F)cc1)C2 (stereo not drawn) [Compound 36]
IC50 [6]: 55 µM
IC50 [7]: 27 µM
IC50 [8]: 7700 nM
IC50 [9]: > 64 µM
IC50 [10, 15]: > 64 µM

Molecule: O=[N+]([O-])c1cn2c(n1)[S+]([O-])CC(Oc1ccc(C(F)(F)F)cn1)C2 (stereo not drawn) [Compound 37]
IC50 [6]: 17 µM
IC50 [7]: 9.9 µM
IC50 [8]: 12000 nM
IC50 [9]: 41 µM
IC50 [10, 15]: 30 µM

Molecule: O=[N+]([O-])c1cn2c(n1)[S+]([O-])CC(OCc1ccc(-c3ccc(OC(F)(F)F)cc3)cn1)C2 (stereo not drawn) [Compound 39, 2-Nitro-6-({5-[4-(trifluoromethoxy)phenyl]pyridin-2-yl}methoxy)-6,7-dihydro-5H-imidazo[2,1-b][1,3]thiazine 8-oxide]
IC50 [6]: 0.075 µM
IC50 [7]: 0.1 µM
IC50 [8]: 140 nM
IC50 [9]: 2 µM
IC50 [10, 15]: 54 µM

Molecule: O=[N+]([O-])c1cn2c(n1)S(=O)(=O)CC(Oc1ccc(OC(F)(F)F)cc1)C2 (stereo not drawn) [Compound 40]
IC50 ([6]; Trypanosoma brucei): 15 µM
IC50 [7, 13]: 13 µM
IC50 ([8]; Trypanosoma cruzi): 3500 nM
IC50 ([9]; Leishmania infantum): 32 µM
IC50 [10, 14]: > 64 µM

Molecule: O=[N+]([O-])c1cn2c(n1)S(=O)(=O)CC(Oc1ccc(C(F)(F)F)cn1)C2 (stereo not drawn) [Compound 41]
IC50 ([6]; Trypanosoma brucei): 19 µM
IC50 [7, 13]: 11 µM
IC50 ([8]; Trypanosoma cruzi): 2600 nM
IC50 ([9]; Leishmania infantum): 30 µM
IC50 [10, 14]: 46 µM

Molecule: N=C(N)c1ccc(OCCCCCOc2ccc(C(=N)N)cc2)cc1 [Pentamidine, pentamidine, reference compound]
Cured [11]: 100%
Cured/Total [11]: 3/3
Mean survival [11]: >30 days

Molecule: Berenil [reference compound]
Cured [12, 16]: 100%
Cured/Total [12, 16]: 5/5
Cured [12, 17]: 0%
Cured/Total [12, 17]: 0/5
Mean relapse time [12, 17]: 41 days

Continued, in another order:

Papp at 1 h, 3 µM [1]: 73.2 ×10⁻⁶ cm/s
Molecule: CSc1ccc(OCc2ncc([N+](=O)[O-])n2C)cc1 [Compound 4, fexinidazole, reference compound]

half-life [4]: < 70 min
solubility [5]: 1.3 µg/mL (≈ 3.04 µM)
Papp at 1 h, 3 µM [1]: 65.1 ×10⁻⁶ cm/s
Molecule: CC1(COCc2ccc(OCc3ccccc3)cc2)Cn2cc([N+](=O)[O-])nc2[S+]1[O-] (stereo not drawn) [Compound 11]
Selectivity Index [2]: >77
IC50 [2]: 0.13 ± 0.04 µg/mL (≈ 0.304 µM)
IC50 [3]: > 10 µg/mL

half-life [4]: < 70 min
solubility [5]: 1.2 µg/mL (≈ 3.02 µM)
Papp at 1 h, 3 µM [1]: 58.3 ×10⁻⁶ cm/s
Molecule: O=[N+]([O-])c1cn2c(n1)SC(COCc1ccc(OCc3ccccc3)cc1)C2 (stereo not drawn) [Compound 15]
Selectivity Index [2]: >22
IC50 [2]: 0.46 ± 0.21 µg/mL (≈ 1.16 µM)
IC50 [3]: > 10 µg/mL

solubility [5]: 1.2 µg/mL (≈ 2.92 µM)
Papp at 1 h, 3 µM [1]: 46.5 ×10⁻⁶ cm/s
Molecule: CC1(COCc2ccc(OCc3ccccc3)cc2)Cn2cc([N+](=O)[O-])nc2S1 (stereo not drawn) [Compound 20]
Selectivity Index [2]: >4.5
IC50 [2]: 2.2 ± 0.7 µg/mL (≈ 5.35 µM)
IC50 [3]: > 10 µg/mL

half-life [4]: 239 min
solubility [5]: 18 µg/mL (≈ 48.7 µM)
Papp at 1 h, 3 µM [1]: 76.9 ×10⁻⁶ cm/s
Molecule: COc1ccc(-c2ccc(O[C@@H]3COc4nc([N+](=O)[O-])cn4C3)nc2)cn1 [Compound 21]
Selectivity Index [2]: >3.7
IC50 [2]: 2.7 ± 0.5 µg/mL (≈ 7.31 µM)
IC50 [3]: > 10 µg/mL

half-life [4]: < 70 min
solubility [5]: 2.4 µg/mL (≈ 6.08 µM)
Papp at 1 h, 3 µM [1]: 36.3 ×10⁻⁶ cm/s
Molecule: CN1CC(OCc2ccc(OCc3ccccc3)cc2)Cn2nc([N+](=O)[O-])cc21 (stereo not drawn) [Compound 23]
Selectivity Index [2]: >3.3
IC50 [2]: 3 ± 0.9 µg/mL (≈ 7.61 µM)
IC50 [3]: > 10 µg/mL

IC50 ([8]; Trypanosoma cruzi): 2200 nM
Molecule: O=[N+]([O-])c1cn2c(n1)SCC(Oc1ccc(OC(F)(F)F)cc1)C2 (stereo not drawn) [Compound 28]
IC50 ([6]; Trypanosoma brucei): 40 µM
IC50 [7, 13]: 59 µM
IC50 ([9]; Leishmania infantum): 7 µM
IC50 [10, 14]: 51 µM

IC50 ([8]; Trypanosoma cruzi): 1100 nM
Molecule: O=[N+]([O-])c1cn2c(n1)SCC(OCc1ccc(OC(F)(F)F)cc1)C2 (stereo not drawn) [Compound 30]
IC50 ([6]; Trypanosoma brucei): 44 µM
IC50 [7, 13]: 36 µM
IC50 ([9]; Leishmania infantum): 55 µM
IC50 [10, 14]: > 64 µM

IC50 ([8]; Trypanosoma cruzi): 490 nM
Molecule: O=[N+]([O-])c1cn2c(n1)SCC(OCc1ccc(OCc3ccccc3)cc1)C2 (stereo not drawn) [Compound 31]
IC50 ([6]; Trypanosoma brucei): 1.4 µM
IC50 [7, 13]: 1.2 µM
IC50 ([9]; Leishmania infantum): 45 µM
IC50 [10, 14]: > 64 µM

IC50 [8]: 9100 nM
Molecule: O=[N+]([O-])c1cn2c(n1)[S+]([O-])CC(OCc1ccc(OC(F)(F)F)cc1)C2 (stereo not drawn) [Compound 38]
IC50 [6]: 5.6 µM
IC50 [7]: 5.1 µM
IC50 [9]: > 64 µM
IC50 [10, 15]: > 64 µM
